Results published in US8791128B2, “Compositions for treating or delaying the onset of hair loss” (University of Central Florida Research Foundation, Inc., priority 2008, dated 2014).
Entries after “also recorded” stand apart in the source; their conditions may differ.

Columns and labels:
[1] = tested on: BrdU positive cells of the epidermis; assay: Topical application study: BrdU immunohistochemistry of epidermis; assay type: in vivo, C57 BL/6 mice
Procedure: (§1) Based on the inventors' realizations, the decision was made to test NBI-18 in a topical application study to induce the genesis or re-growth of hair. Varying doses of NBI-18 [0.75 mg/ml, 1.5 mg/ml, 3.0 mg/ml, and control (50% ETOH)] was delivered in 5 ul drops to shaved locations on the back of C57 BL/6 mice. The varying doses were given 5 consecutive days and on day 4 and 5 BrdU (100 mg/kg, ip) was injected. […] NBI-18 has proven to produce a desired affect in rodent models that show a predominant re-growth of hair using the topical application of the small molecular pyrimidine compound known as NBI-18. We are hypothesizing that NBI-18 treatment will lead to greater cytogenesis and eventually lead to a commercial product that will eradicate hair loss. These studies will be further described in the Examples provided below.
In this study, the inventors determined a dose range where keratinogenesis occurs in healthy mice to help us learn about the fate of newly formed cells within the epidermis. […] In order for us to eliminate unnecessary anesthesia, our vehicle of delivery was 50% Ethanol (ETOH). NBI-18 was suspended in 50% ETOH using the concentrations of 0.75 mg/ml, 1.5 mg/ml, 3.0 mg/ml, and control (50% ETOH) respectively.
A. Two C57 BL/6 mice were selected for the topical application study of NBI-18. The mice were prepped by shaving four specific locations lateral/dorsal in a circular pattern. NBI-18 was delivered to the specified areas (right, counterclockwise from lowest to highest dose, then control) in concentrations of 1.5 mg/ml, 3.0 mg/ml, 6.0 mg/ml and control (50% ETOH) respectively. The solutions were applied to the center of these locations in a 5 ul dose for 5 consecutive days and on days 4 and 5 BrdU (100 mg/K, ip) was injected. On day 7 the mice were euthanized using a high dose pentobarbital (70 mg/kg, ip) and the treated epidermis was dissected and placed into 4% paraformaldehyde fixative for 48 hour
Immunohistochemistry of epidermis. Epidermal sections were mounted into square embedding molds with freezing medium (O.C.T. compound, Tissue Tek), sliced in 20 uM sections then mounted onto adhesive coated slides (Instrumedics, Inc) via tape transfer method. Slides were washed with PBS then placed in 2NHCL for 30 minutes to […]. Slides were then washed again with PBS, then blocked using 3% Donkey serum in PBST for 1 hour. Primary anti-body suspended in blocking solution used was anti-BrdU (sigma) at 1:1000 overnight in 4C. Slide were washed 3× then placed in secondary anti-body suspended in blocking solution, FITC (Jackson ImmunoResearch) at 1:500 for 2 hours at room temperature then washed with PBS. Slides were mounted using Vectashield with Dapi. […]

[2] = Absorption and half-life in rodents (HPLC analysis); assay type: in vivo, rat
Description: (§2) U.S. Pat. Nos. 4,959,368; 5,976,523. One derivative of interest is heterocyclic pyrimidine molecule referred to herein as ‘NBI-18’ (2-piperadino-6-methyl-5-oxo-5,6-dihydro-(7H) pyrrolo-[3,4-d]pyrimidine maleate; Mwt. 349.54). […] U.S. Patent Pub 20030139410. The mechanism of action of NBI-18 is not known, although some evidence implies the activation of the MAPK (mitogen activated protein kinase) pathway, a cascade that is also activated by peptide growth factors. […] NBI-18 has been tested in isolated animal models—axon growth in mice and muscle regeneration in rats—with no evidence of mechanistic details relating to function. Mechanism of action studies to find the drug target, are planned as part of our ongoing research. Upon learning about the availability of NBI-18 family of molecules, it was hypothesized that the compounds may be involved in the proliferation process of Stem Cells and the inventors decided to examine the possible implication for genesis of Keratinocyte Stem Cells (KSCs) or possibly the human bulge cells which provide the niche for KSCs, in animal models.

[3] = tested on: rodent cortical neurons; conditions: cited from earlier work
[4] = tested on: hair re-growth; assay: Topical application study: hair re-growth on shaved skin; assay type: in vivo, C57 BL/6 mice; conditions: topical 0.75, 1.5, 3.0 mg/ml, 5 consecutive days
Procedure: as §1
B. Four C57 BL/6 mice were selected for the topical application study of NBI-18. The mice were prepped by shaving four specific locations lateral/dorsal in a circular pattern. NBI-18 was delivered to the specified areas (right, counterclockwise from lowest to highest dose, then control) in concentrations of 0.75 mg/ml, 1.5 mg/ml, and 3.0 mg/ml, and control (50% ETOH) respectively. The solutions were applied to the center of these locations in a 5 ul dose for 5 consecutive days and on days 4 and 5 BrdU (100 mg/K, ip) was injected. […]

[5] = Extraction of NBI-18 from epidermis of treated mice; assay type: in vivo; conditions: 24 hours post-injection
Description: as §2

[6] = Ames test by a third party; conditions: third party company
Description: as §2

[7] = tested on: cells in the brain of rodents; assay: NBI-18 injections: cell proliferation and neurogenesis in rodent brain; assay type: in vivo
[8] = tested on: human NSCs; assay: Proliferation of human NSCs in culture; assay type: cell-based
[9] = Toxicity study (i.p., 7 days; rotarod, open field, postural reflex, forelimb placing); assay type: in vivo, C57 BL/6 mice; conditions: 100, 300, 1000 mg/kg/day i.p. for 7 days
Procedure: A total of 16 male C57 BL/6 mice (12 weeks old) weighing 25-30 g were used to investigate the toxicity of NBI-18. The mice were maintained on a 12-h light/dark cycle, and had free access to food and water through the study period. These animals were housed four per cage. In this study, animals were divided into four groups (four/group). Acute toxicity has been tested up to 1000 mg/kg. NBI-18 (0, 100, 300,1000 mg/kg/day, i.p.) was injected for 7 days and for the control group, the same volume of vehicle saline was injected. Bromodeoxyuridine (BrdU)(Sigma Chemical Co., St Louis, Mo.), was injected (100 mg/kg/day, i.p.) for the last three days (days 5-7). For behavioral testing, rotarod and open field tests were used to examine balance and coordination of mice before, during and after NBI-18 injection. Also, postural reflex and forelimb placing tests were performed to evaluate the neurological functions for the animals. All the animals were anesthetized with pentobarbital (i.p.) 48 h after the last BrdU injection and immediately per fused with 4% paraformaldehyde fixative. The brains were immediately dissected, post fixed for 24 h and processed for immunohistochemistry.

[10] = daily injections for five days, rodents

CN1Cc2nc(N3CCCCC3)ncc2C1=O.O=C(O)/C=C\C(=O)O [NBI-18, 2-piperadino-6-methyl-5-oxo-5,6-dihydro-(7H) pyrrolo-[3,4-d]pyrimidine maleate]
newly developed (BrdU) cells versus control ([1]; Example 3A, topical 1.5, 3.0, 6.0 mg/ml, 5 ul, 5 days, FIG. 1): mass increases of newly developed cells | migration pattern of new cells ([1]; Example 3A, topical 1.5, 3.0, 6.0 mg/ml, FIG. 1): alignment towards migration patterns | dose dependence of the elevation in BrdU positive stained cells ([1]; topical 0.75, 1.5, 3.0 mg/ml in 50% ETOH): did not demonstrate a dose dependent increase | BrdU positive (proliferating) cells in comparison to control ([1]; topical 0.75, 1.5, 3.0 mg/ml in 50% ETOH, 5 ul, 5 consecutive days): abundant increase in proliferating cells; also recorded: vast increase; also recorded: dramatic elevation; also recorded: some varying levels of increase; also recorded: increases the number of BrdU positive cells | absorption ([2]; after intraperitoneal as well as oral administration, rodent studies): absorbed well | oral bioavailability ([2]; general statement): orally bioavailability | t1/2 ([2]; rat circulation, HPLC analysis): > 4 h | rate of apoptosis ([3]; TUNEL assays): reducing the rate of apoptosis | activity in neuron culture ([3]; bFGF, nerve growth factor, EGF, insulin-like growth factor): active primarily in the presence of various growth factors | survival of rodent cortical neurons [3]: promoted the survival | time to re-growth of hair near to its original length [4]: ≤ 7 days | hair re-growth in treated areas compared to control areas ([4]; 5 ul, shaved skin): visibly complete hair growth; also recorded: visible re-growth of hair; also recorded: actual hair re-growth | presence in epidermis [5]: can be extracted | mutagenicity [6]: not mutagenic; also recorded: no mutagenesis or toxicity | dose dependence of the increase in proliferation ([7]; animal studies): dose dependent | neurogenesis ([7]; daily injections for five days, at four weeks, young and aged rodents): stable neurogenesis | pathological effects [7, 10]: no discernible pathological effects | symptoms of toxicity [7, 10]: no symptoms of toxicity | proliferation of cells in the brain ([7]; injections 5 mg/kg, rodents): increased proliferation | proliferation of human NSCs [8]: stimulate the proliferation | behavioral or neurological changes [9]: no immediate behavioral or neurological changes | symptoms of toxicity [9]: no symptoms of toxicity
